Among the test systems are MALME-3M melanoma; M14 melanoma; NCI-H23 lung; LOX IMVI melanoma; TK-10 renal; HCC-2998 colon; SK-MEL-5 melanoma; OVCAR-4 ovarian; HCT-15 colon; BT-549 breast.
What all share (experiment): inhibition of tumour cell growth, NCI panel, 48 h

“And” between values parts separate entries of the source, which are not always exact repeats. Equal entries are not always repeated.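 Briefly, cells in 96-well plates were exposed to five compound concentrations for 48 h, and endpoints were estimated by linear interpolation. GI50: concentration for 50% inhibition of growth. At the TGI there is no net growth.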

Regarding `Cc1[nH]c(=O)[nH]c(=O)c1N(CCF)CCCl`, the GI50 is 219 µM and 393 µM in the assay with MALME-3M melanoma; 255 µM and 512 µM in the assay on NCI-H23 lung; 236 µM and 290 µM and 139 µM in the assay on LOX IMVI melanoma; 220 µM in the assay on HCC-2998 colon; 388000 nM in the assay with SK-MEL-5 melanoma; 230 µM in the assay on OVCAR-4 ovarian. For the same compound, in the assay with HCT-15 colon, the GI50 was 182 µM and 310 µM and 186 µM. Also, the TGI in the assay on MALME-3M melanoma is 410 µM and 757 µM and 721 µM; in the assay on M14 melanoma, 767 µM; with NCI-H23 lung, 635 µM and 2500 µM and 631 µM; in the assay with LOX IMVI melanoma, 726 µM and 671 µM and 787 µM; in the assay on TK-10 renal it was 1070 µM; in the assay with HCC-2998 colon, 606 µM and 668 µM and 751 µM. Moreover, the TGI in the assay on SK-MEL-5 melanoma is 394 µM and 788 µM and 699 µM; in the assay with OVCAR-4 ovarian, 461 µM and 755 µM; in the assay on HCT-15 colon, 503 µM and 486 µM and 1330 µM; in the assay with BT-549 breast, 769 µM.

As to `O=[N+]([O-])c1ccc(N2CCN(Cc3ccccc3)CC2)c2c1no[n+]2[O-]`, the GI50 in the assay with MALME-3M melanoma is 1.6 µM; with M14 melanoma, 1800 nM; in the assay with NCI-H23 lung, 1.98 µM; with LOX IMVI melanoma it was 0.558 µM; with TK-10 renal, 1.75 µM; in the assay with HCC-2998 colon it was 1.78 µM. For the same compound, the GI50 in the assay with SK-MEL-5 melanoma was 1730 nM; with OVCAR-4 ovarian it was 1.37 µM; in the assay on HCT-15 colon, 0.805 µM; with BT-549 breast, 1930 nM. In addition, the TGI came to 3.3 µM with MALME-3M melanoma; 3.52 µM with M14 melanoma; 5.68 µM in the assay on NCI-H23 lung; 1.67 µM in the assay on LOX IMVI melanoma; 3.23 µM with TK-10 renal; 3.33 µM in the assay on HCC-2998 colon. Besides, the TGI with SK-MEL-5 melanoma amounted to 3.73 µM; with OVCAR-4 ovarian, 3.07 µM; in the assay with HCT-15 colon, 2.46 µM; in the assay on BT-549 breast it was 3.78 µM.

Consider `O=C(Nc1ccc(-c2nc3cc4ccccc4cc3[nH]2)cc1)c1cccc(Br)c1`, for which the GI50 was 12.8 µM with MALME-3M melanoma; 7590 nM in the assay on M14 melanoma; 19.2 µM in the assay on NCI-H23 lung; 6.85 µM with LOX IMVI melanoma; 4 µM in the assay with TK-10 renal; 31.1 µM in the assay on HCC-2998 colon. Also, the GI50 is 6580 nM with SK-MEL-5 melanoma, 2.88 µM in the assay with OVCAR-4 ovarian, 4.12 µM in the assay with HCT-15 colon and 12600 nM with BT-549 breast. In addition, the TGI in the assay with MALME-3M melanoma was 28.9 µM; in the assay with M14 melanoma it was 24.8 µM; with NCI-H23 lung, 50.3 µM; in the assay with LOX IMVI melanoma, 20.1 µM; in the assay with TK-10 renal it was 11.3 µM; in the assay with HCC-2998 colon it was more than 100 µM. The TGI in the assay on SK-MEL-5 melanoma is 21.4 µM; with OVCAR-4 ovarian, 7.97 µM; in the assay with HCT-15 colon it was 42.1 µM; with BT-549 breast, 28.5 µM.

On to `CCNC(=O)C[C@@H]1N=C(c2ccc(Cl)cc2)c2cc(OC)ccc2-n2c(C)nnc21`, for which the GI50 in the assay on MALME-3M melanoma was 3.49 µM; in the assay on M14 melanoma, 2020 nM; in the assay with NCI-H23 lung, 13.5 µM; in the assay on LOX IMVI melanoma, 0.844 µM; with TK-10 renal, 0.645 µM; in the assay with HCC-2998 colon, 5.77 µM. Further, the GI50 in the assay with OVCAR-4 ovarian was 5.93 µM; in the assay with HCT-15 colon it was 3.77 µM; with BT-549 breast it was more than 28100 nM. Moreover, the TGI in the assay with MALME-3M melanoma is more than 100 µM; in the assay with M14 melanoma, more than 100 µM; in the assay with NCI-H23 lung, more than 100 µM; in the assay on LOX IMVI melanoma, more than 100 µM; in the assay on TK-10 renal, more than 53.8 µM; in the assay on HCC-2998 colon, more than 100 µM. Besides, the TGI in the assay on SK-MEL-5 melanoma, with OVCAR-4 ovarian, in the assay with HCT-15 colon and in the assay with BT-549 breast was more than 100 µM throughout.

Regarding `CN(C)CCCCN1CCc2c(n(C)c3ccccc23)C1=O`, the TGI was 43.6 µM and 36.3 µM with MALME-3M melanoma; 36.8 µM and 34 µM with M14 melanoma; more than 100 µM with NCI-H23 lung; > 72.9 µM and 42.8 µM in the assay with LOX IMVI melanoma; more than 100 µM with TK-10 renal; 64.3 µM and 30.3 µM in the assay on HCC-2998 colon. Further, the TGI in the assay with SK-MEL-5 melanoma is 42.8 µM and 31.9 µM; in the assay with OVCAR-4 ovarian, more than 100 µM; in the assay on HCT-15 colon, 54.9 µM and 58.3 µM; in the assay on BT-549 breast, > 61.5 µM and 95.3 µM. Further, the GI50 with TK-10 renal is > 100 µM and 38.8 µM; in the assay with HCC-2998 colon, 39.7 µM and 15.9 µM.

With `CC/C=C\C[C@H](O)C/C=C1/C(=O)C=C[C@@H]1C/C=C\CCCC(=O)NC(C)C`, the GI50 with MALME-3M melanoma is 2.4 µM; in the assay with M14 melanoma, 2870 nM; with NCI-H23 lung, 2.33 µM; with LOX IMVI melanoma it was 1.06 µM; in the assay on TK-10 renal it was 3.73 µM; in the assay with HCC-2998 colon, 1.87 µM. Besides, the GI50 in the assay with SK-MEL-5 melanoma was 1800 nM; in the assay with OVCAR-4 ovarian, 4.27 µM; with HCT-15 colon, 2.02 µM; in the assay on BT-549 breast, 2450 nM. Also, the TGI worked out at 6.69 µM in the assay with MALME-3M melanoma; 10 µM with M14 melanoma; 6.09 µM in the assay with NCI-H23 lung; 2.5 µM with LOX IMVI melanoma; 9.64 µM with TK-10 renal; 3.42 µM in the assay with HCC-2998 colon. Moreover, the TGI was 3.35 µM in the assay on SK-MEL-5 melanoma, 18.4 µM with OVCAR-4 ovarian, 4.92 µM in the assay on HCT-15 colon and 6.13 µM with BT-549 breast.

Regarding `C=C1C(=O)O[C@H]2[C@H]1CC/C(COC(=O)C(=O)c1c[nH]c3ccccc13)=C\CC[C@@]1(C)O[C@@H]21`, the GI50 with MALME-3M melanoma was 2.09 µM; with M14 melanoma it was 2000 nM; in the assay with NCI-H23 lung, 3.92 µM; with LOX IMVI melanoma, 1.48 µM; in the assay with TK-10 renal, 1.38 µM; with HCC-2998 colon, 1.95 µM. For the same compound, the GI50 in the assay on SK-MEL-5 melanoma is 2060 nM; with OVCAR-4 ovarian it was 5.18 µM; in the assay on HCT-15 colon, 1.75 µM; in the assay on BT-549 breast it was 2080 nM. For the same compound, the TGI in the assay with MALME-3M melanoma turned out to be 4.33 µM; in the assay on M14 melanoma, 5.19 µM; in the assay with NCI-H23 lung, 16 µM; in the assay with LOX IMVI melanoma it was 3.04 µM; in the assay with TK-10 renal it was 2.81 µM; in the assay on HCC-2998 colon, 4.02 µM. Further, the TGI in the assay on SK-MEL-5 melanoma worked out at 4.13 µM; in the assay on OVCAR-4 ovarian it was 25.9 µM; in the assay with HCT-15 colon, 4.02 µM; in the assay with BT-549 breast, 5.22 µM.

For the compound `Cc1ccc(NC(c2ccccc2)c2ccc3cccnc3c2O)cc1` (stereo not drawn), the TGI with MALME-3M melanoma was 13.8 µM; in the assay on M14 melanoma it was 19 µM; with NCI-H23 lung, 19.2 µM; in the assay on LOX IMVI melanoma, 16.4 µM; in the assay on TK-10 renal, 14.3 µM; in the assay with HCC-2998 colon, more than 100 µM. Moreover, the TGI in the assay on SK-MEL-5 melanoma stood at 15.4 µM; with OVCAR-4 ovarian, 16.4 µM; with HCT-15 colon it was 14.4 µM; in the assay with BT-549 breast it was 15.3 µM.

Values taken from PubChem BioAssay (NCI).
